Measurements from paper PMC6343479 (2018).

What was measured:
[1] = tested on: r(CUG)4 (RNA, repeat) CUGCUGCUGCUG; assay: ITC; settings: single binding model; representative curve K = (1.06 ± 0.30) ×10^7 M^-1
[2] = tested on: CTG palindrome d(CTGCTGCAGCAG) (DNA, duplex) CTGCTGCAGCAG; assay: ITC; settings: single binding model; representative curve K = (2.1 ± 0.3) ×10^6 M^-1

## N=C(N)c1ccc(-c2ccc(-c3ccc(C(=N)N)cc3)o2)cc1
[1]
  KD: 99 ± 25 nM
[2]
  KD: 485 ± 73 nM
